# According to ChEMBL document CHEMBL5143730, “Structure-Based Design, Optimization, and Development of [18F]LU13: A Novel Radioligand for Cannabinoid Receptor Type 2 Imaging in the Brain with PET” (J Med Chem, 2022):
# Legend:
# [1] = target: Cannabinoid receptor 1 (Homo sapiens, UniProt P21554); test: Displacement of [3H]-SR141716A from recombinant human CB1 receptor expressed in CHO cells membrane incubated for 90 mins; assay type: cell membranes
# [2] = target: T1, Cannabinoid receptor 2 (Homo sapiens, UniProt P34972); test: Displacement of [3H]-WIN55212-2 from human CB2 receptor transfected in CHO cells membrane incubated for 90 mins; assay type: cell membranes
# T1 sequence (P34972 whole entry): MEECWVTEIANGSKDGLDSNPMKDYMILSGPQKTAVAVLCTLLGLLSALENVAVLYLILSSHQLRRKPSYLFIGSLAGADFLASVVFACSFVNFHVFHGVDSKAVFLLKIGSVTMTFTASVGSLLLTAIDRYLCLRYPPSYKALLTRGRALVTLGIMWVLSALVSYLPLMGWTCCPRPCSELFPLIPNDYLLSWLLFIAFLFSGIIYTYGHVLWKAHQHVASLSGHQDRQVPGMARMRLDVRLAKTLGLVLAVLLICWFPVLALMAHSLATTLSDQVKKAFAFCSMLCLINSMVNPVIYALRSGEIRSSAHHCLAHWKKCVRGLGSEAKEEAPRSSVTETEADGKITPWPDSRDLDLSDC
# [3] = species: Homo sapiens; test: Selectivity ratio of Ki for displacement of [3H]-SR141716A from human CB1 receptor to Ki for displacement of [3H]-WIN55212-2 from human CB2 receptor
# [4] = species: Homo sapiens; test: Selectivity ratio of Ki for human CB1 receptor to Ki for human CB2 receptor
# [5] = target: T1, Cannabinoid receptor 2; test: Displacement of [3H]-WIN55212-2 from human CB2 receptor transfected in CHO-K1 cell membrane incubated for 90 mins by Liquid scintillation counter analysis; assay type: cell membranes
# [6] = target: T2, Cannabinoid receptor 2 (Rattus norvegicus, UniProt Q9QZN9); test: Displacement of [18F]-LU13 from rat spleen CB2 receptor incubated for 90 mins by competitive radioligand binding assay; assay type: tissue-based
# T2 sequence (Q9QZN9 whole entry): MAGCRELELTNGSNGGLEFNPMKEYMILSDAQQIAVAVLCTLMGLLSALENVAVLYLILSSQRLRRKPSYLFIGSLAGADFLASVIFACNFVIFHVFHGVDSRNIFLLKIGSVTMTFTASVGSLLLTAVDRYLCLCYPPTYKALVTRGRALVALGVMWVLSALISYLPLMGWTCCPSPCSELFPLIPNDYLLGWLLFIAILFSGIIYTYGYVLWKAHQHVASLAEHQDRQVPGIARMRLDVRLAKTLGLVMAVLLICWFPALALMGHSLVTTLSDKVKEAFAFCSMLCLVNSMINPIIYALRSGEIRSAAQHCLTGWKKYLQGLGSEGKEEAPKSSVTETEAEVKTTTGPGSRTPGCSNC
# [7] = target: T1, Cannabinoid receptor 2; test: Displacement of [18F]-LU13 from human CB2 receptor transfected in CHO cells membrane homogenate incubated for 90 mins by competitive radioligand binding assay; assay type: cell membranes
# [8] = target: T1, Cannabinoid receptor 2; test: Inhibition of human CB2 receptor assessed as inhibition constant; assay type: functional
# [9] = Metabolic stability in CD-1 mouse plasma assessed as parent compound remaining measured after 30 mins by radio-HPLC analysis; assay type: ADME, cell-free; conditions: read-out: Stability
# [10] = Metabolic stability in CD-1 mouse brain assessed as parent compound remaining measured after 30 mins by radio-HPLC analysis; assay type: ADME, tissue-based; conditions: read-out: Stability
# [11] = Metabolic stability in CD-1 mouse spleen assessed as parent compound remaining measured after 30 mins by radio-HPLC analysis; assay type: ADME, tissue-based; conditions: read-out: Stability
# [12] = Drug uptake in iv dosed Wistar rat brain striatum overexpressing human CB2 receptor (D80N) assessed as time to peak radioactivity measured after 26 mins of post injection by PET imaging analysis; assay type: ADME, organism-based; conditions: in vivo
# [13] = Drug uptake in iv dosed Wistar rat brain striatum overexpressing human CB2 receptor (D80N) assessed as TAC peak standardized uptake of compound by PET imaging analysis; assay type: ADME, organism-based; conditions: in vivo
# [14] = Drug uptake in iv dosed Wistar rat brain contralateral region overexpressing human CB2 receptor (D80N) assessed as time to peak radioactivity measured after 26 mins of post injection by PET imaging analysis; assay type: ADME, organism-based; conditions: in vivo
# [15] = Drug uptake in iv dosed Wistar rat brain contralateral region overexpressing human CB2 receptor (D80N) assessed as TAC peak standardized uptake of compound by PET imaging analysis; assay type: ADME, organism-based; conditions: in vivo
# [16] = MRT in iv dosed Wistar rat brain contralateral region overexpressing human CB2 receptor (D80N) by PET imaging analysis; assay type: ADME, organism-based; conditions: in vivo
# [17] = Drug uptake in iv dosed Wistar rat brain cerebellum overexpressing human CB2 receptor (D80N) assessed as time to peak radioactivity measured after 26 mins of post infection by PET imaging analysis; assay type: ADME, organism-based; conditions: in vivo
# [18] = Drug uptake in iv dosed Wistar rat brain cerebellum overexpressing human CB2 receptor (D80N) assessed as TAC peak standardized uptake of compound by PET imaging analysis; assay type: ADME, organism-based; conditions: in vivo
# [19] = MRT in iv dosed Wistar rat brain cerebellum overexpressing human CB2 receptor (D80N) by PET imaging analysis; assay type: ADME, organism-based; conditions: in vivo
# [20] = tested as the 18F-labelled form
# Cannabinoid receptor 1, sequence (P21554 whole entry): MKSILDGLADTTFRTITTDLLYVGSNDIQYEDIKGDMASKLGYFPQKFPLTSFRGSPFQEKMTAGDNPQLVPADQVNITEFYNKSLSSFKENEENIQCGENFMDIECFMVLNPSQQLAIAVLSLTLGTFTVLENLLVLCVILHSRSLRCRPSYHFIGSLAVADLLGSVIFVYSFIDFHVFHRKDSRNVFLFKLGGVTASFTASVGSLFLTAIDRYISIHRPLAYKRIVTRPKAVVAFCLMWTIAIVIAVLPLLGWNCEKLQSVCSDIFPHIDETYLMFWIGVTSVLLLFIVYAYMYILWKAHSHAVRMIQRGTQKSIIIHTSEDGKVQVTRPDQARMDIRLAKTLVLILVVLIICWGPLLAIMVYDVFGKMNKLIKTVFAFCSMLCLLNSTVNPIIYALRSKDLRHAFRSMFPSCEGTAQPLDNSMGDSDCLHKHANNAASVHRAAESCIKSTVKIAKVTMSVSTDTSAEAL
smiles,measurement,setting,value
C[C@H]1CC[C@H](NC(=O)c2cc3cc(-c4ccco4)cnc3n(Cc3ccc(F)cc3)c2=O)CC1,Ki,[1],86 nM
Cc1s/c(=N\C(=O)C2C(C)(C)C2(C)C)n(CCCC[18F])c1C,Ki,[2],0.0004 µM
Cc1s/c(=N\C(=O)C2C(C)(C)C2(C)C)n(CCCCF)c1C,Ratio Ki,[3]; [20],1000
C[C@H]1CC[C@H](NC(=O)c2cc3cccnc3n(CCOCCF)c2=O)CC1,Ki,[1],780 nM
C[C@H]1CC[C@H](NC(=O)c2cc3cccnc3n(CCCF)c2=O)CC1,Ki,[1],4600 nM
C[C@H]1CC[C@@H](NC(=O)c2cc3cc(-c4ccco4)cnc3n(Cc3ccc(F)cc3)c2=O)CC1,Ki,[1],5 nM
same,Ki,[2],0.915 µM
same,Ratio Ki,[3],> 183
C[C@H]1CC[C@H](NC(=O)c2cc3cc(-c4ccco4)cnc3n(Cc3cccc(F)c3)c2=O)CC1,Ki,[1],5000 nM
O=C(NC12CC3CC(CC(C3)C1)C2)c1cc2cccnc2n(CCOCCF)c1=O,Ki,[1],3.9 nM
same,Ki,[2],> 1 µM
O=C(NCc1ccc(F)cc1)c1cc2cccnc2n(CCCCF)c1=O,Ki,[1],1100 nM
same,Ki,[2],> 10 µM
C[C@H]1CC[C@@H](NC(=O)c2cc3cccnc3n(CCCF)c2=O)CC1,Ki,[1],115 nM
CCC(CC)(NC(=O)c1ccc(N2CC(OC)C2)c(OC[C@H]2C[C@@H]2CO)n1)C(=O)OCCCF,Ratio Ki,"[4]; tested as the 18F, 2H-labelled form",> 10000
COc1cccc2c(=O)c(C(=O)NC34CC5CC(CC(C5)C3)C4)cn(CCOCCCF)c12,Ratio Ki,[3]; [20],> 10000
COc1cccc2c(=O)c(C(=O)NC34CC5CC(CC(C5)C3)C4)cn(CCOCCC[18F])c12,Ki,[5],0.9 nM
C[C@H]1CC[C@@H](NC(=O)c2cc3cc(-c4ccco4)cnc3n(Cc3ccccc3F)c2=O)CC1,Ki,[1],65 nM
same,Ki,[2],> 10 µM
same,Ratio Ki,[3],> 153
O=C(Nc1ccc(F)cc1)c1cc2cccnc2n(CCCCF)c1=O,Ki,[1],3900 nM
same,Ki,[2],> 10 µM
O=C(Nc1ccccc1)c1cc2cccnc2n(CCCCF)c1=O,Ki,[1],2200 nM
same,Ki,[2],> 10 µM
CC1CCC(NC(=O)c2cc3cc(Br)cnc3n(CCCCF)c2=O)CC1 (mixture of isomers),Ki,[1],4.8 nM
same,Ki,[2],> 10 µM
C[C@H]1CC[C@H](NC(=O)c2cc3cc(-c4ccco4)cnc3n(CCCF)c2=O)CC1,Ki,[1],6800 nM
C[C@H]1CC[C@@H](NC(=O)c2cc3cccnc3n(CCCCF)c2=O)CC1,Ki,[1],6 nM
same,Ki,[2],> 1 µM
same,Ratio Ki,[3],> 167
C[C@H]1CC[C@@H](NC(=O)c2cc3cc(-c4ccco4)cnc3n(Cc3cccc(F)c3)c2=O)CC1,Ki,[1],2.9 nM
same,Ki,[2],> 10 µM
same,Ratio Ki,[3],> 1000
O=C(Nc1ccncc1)c1cc2cccnc2n(CCCCF)c1=O,Ki,[1],> 1000 nM
same,Ki,[2],> 10 µM
CCCCOc1c(OC)ccc2cc(C(=O)NC3CCCCC3)c(=O)[nH]c12,Ratio Ki,[4]; tested as the 11C-labelled form,100
C[C@H]1CC[C@@H](NC(=O)c2cc3cc(-c4ccco4)cnc3n(CCCF)c2=O)CC1,Ki,[1],28 nM
same,Ki,[2],> 10 µM
C[C@H]1CC[C@@H](NC(=O)c2cc3cc(-c4ccco4)cnc3n(CCCCF)c2=O)CC1,Ki,[1],3.3 nM
same,Ki,[2],> 10 µM
same,Ratio Ki,[3],> 303
CC1CCC(NC(=O)c2cc3cc(Br)cnc3n(Cc3ccc(F)cc3)c2=O)CC1 (mixture of isomers),Ki,[1],1.7 nM
same,Ki,[2],> 0.155 µM
same,Ratio Ki,[3],91
O=C(NC12CC3CC(CC(C3)C1)C2)c1cc2cccnc2n(CCCCF)c1=O,Ki,[1],0.6 nM
same,Ki,[2],> 1 µM
same,Ratio Ki,[3],> 1000
same,IC50,[6],0.22 nM
same,IC50,[7],1.17 nM
[2H]C([2H])([18F])C([2H])([2H])C([2H])([2H])OC(=O)C(CC)(CC)NC(=O)c1ccc(N2CC(OC)C2)c(OC[C@H]2C[C@@H]2CO)n1,Ki,[8],0.6 nM
[2H]C([2H])([18F])C([2H])([2H])C([2H])([2H])C([2H])([2H])n1c(=O)c(C(=O)NC23CC4CC(CC(C4)C2)C3)cc2cccnc21,remaining at 0.5 h,[9],23%
same,remaining at 0.5 h,[10],85%
same,remaining at 0.5 h,[11],95%
same,Drug uptake,[12],26 min
same,Drug uptake,[13],3.6 SUV.min
same,Drug uptake,[14],6.1 min
same,Drug uptake,[15],1.7 SUV.min
same,MRT,[16],23 min
same,Drug uptake,[17],5.4 min
same,Drug uptake,[18],1.8 SUV.min
same,MRT,[19],23 min
C[C@H]1CC[C@H](NC(=O)c2cc3cc(-c4ccco4)cnc3n(CCCCF)c2=O)CC1,Ki,[1],49 nM
C[C@H]1CC[C@H](NC(=O)c2cc3cc(-c4ccco4)cnc3n(Cc3ccccc3F)c2=O)CC1,Ki,[1],> 10000 nM
O=C(Nc1ccc(F)nc1)c1cc2cccnc2n(CCCCF)c1=O,Ki,[1],> 1000 nM
same,Ki,[2],> 10 µM
O=C(NC12CC3CC(CC(C3)C1)C2)c1cc2cccnc2n(Cc2ccc(F)cc2)c1=O,Ki,[1],1.5 nM
same,Ki,[2],> 1 µM
C[C@H]1CC[C@@H](NC(=O)c2cc3cccnc3n(CCOCCF)c2=O)CC1,Ki,[1],13 nM
same,Ki,[2],> 10 µM
same,Ratio Ki,[3],> 714
O=C(Nc1cccnc1)c1cc2cccnc2n(CCCCF)c1=O,Ki,[1],> 1000 nM
same,Ki,[2],> 10 µM
